According to PMC11434080, “Acetylation of Oleanolic Acid Dimers as a Method of Synthesis of Powerful Cytotoxic Agents” (Molecules, 2024):
Entries after “also recorded” stand apart in the source; their conditions may differ.

How the values were obtained:
[1] = parameters: method as in PMID 39000101, PMID 39125028; conditions: previously analyzed derivatives; cited from earlier work
[2] = parameters: method as in PMID 39000101, PMID 39125028; conditions: previously analyzed derivatives; cited from earlier work; remark: listed apart in the source
[3] = system: SKBR-3, SKOV-3, PC-3, and U-87 cancer cell lines; assay: MTT assay, four cancer cell lines taken together; type: cell-based, human; conditions: MTT, across SKBR-3, SKOV-3, PC-3, U-87
Procedure: (§1) The cytotoxic activity of oleanolic acid (mother compound, 1, Figure 2) and its 14 derivatives (3a–3n, Figure 2) was tested in vitro using the standard MTT method based on viability assay, e.g., [44] against carcinoma cell lines: SKBR-3, SKOV-3, PC-3, U-87, and one normal cell line: HDF.
(§2) Human cancer cells: SKBR-3 and SKOV-3 were cultured in McCoy’s Modified Medium; PC-3 was cultured in an F-12K medium; U-87 was cultured in EMEM medium; HDF was cultured in Fibroblast Basal Medium. Each medium was supplemented with 10% fetal bovine serum, 1% L- glutamine, and 1% penicillin/streptomycin solution. The cell lines were kept in an incubator at 37 °C. All the cell lines and mediums were obtained from the American Type Culture Collection (ATCC) supplied by LGC-Standards (Lomianki, Poland).
(§3) The MTT assay was conducted as described earlier, e.g., [44]. In short, this method is based on the reaction between mitochondria enzymes (dehydrogenases) of tested cell lines and 3-(4,5-dimethylthiazol-2-yl)-2,5-diphenyltetrazolium bromide (MTT). The final product of this reaction gives violet formazan crystals. The number of live cells is proportional to the amount of formazan and is represented by the violet dye reagent. The details of the experiments are given in [44].

[4] = system: SKBR-3; assay: MTT assay, SKBR-3; type: cell-based, human; conditions: for IC50: SK-BR-3, MTT assay, SKBR-3 human breast adenocarcinoma, value (SD); for SKBR-3 SI: Selectivity Index = IC50 HDF / IC50 SKBR-3
Procedure: as §1, §2, §3

[5] = system: U-87; assay: MTT assay, U-87; type: cell-based, human; conditions: for IC50: U-87 MG, MTT assay, U-87 human glioblastoma, value (SD); for U-87 SI: Selectivity Index = IC50 HDF / IC50 U-87
Procedure: as §1, §2, §3

[6] = CUPRAC antioxidant assay; conditions: Figure 3
Description: (§4) The results of the antioxidant activity of oleanolic acid (1) and Acetylated Oleanolic Acid Dimers (AcOADs) 3a–3n evaluated with CUPRAC and DPPH assays are given in Figure 3. The results are presented as % inhibition of the copper(II) ions and Trolox equivalent (blue bars) calculated from the standard curve, presented in the Supplementary Materials (Supplementary Materials S02, Figure S1) and as % inhibition of the DPPH radical and Trolox equivalent (pink bars), calculated from the standard curve presented in the Supplementary Materials (Supplementary Materials S02, Figure S2).
(§5) The CUPRAC reagent (7.5 mM ethanolic 96% neocuproine solution, 10 mM CuCl2 × H2O solution, and an ammonium acetate buffer of pH 7.0) and DPPH reagent (2,2-diphenyl-1-picrylhydrazyl 0.2 mM solution) were applied.
(§6) The DPPH assay relies on the ability of an antioxidant to donate a hydrogen atom or an electron to the stable DPPH radical, resulting in its reduction and subsequent color change. In contrast, the CUPRAC method measures the reducing power of a sample by quantifying its ability to convert the Cu-neocuproine reagent complex into the Cu(I) form. The results are presented as % inhibition of the copper(II) ions and Trolox equivalent (blue bars) calculated from the standard curve (Supplementary Materails S02, Figure S1) and as % inhibition of the DPPH radical and Trolox equivalent (pink bars), calculated from the standard curve (Supplementary Materials S02, Figure S2). The details of the experiments are given in [46].

[7] = system: HDF; assay: MTT assay, HDF normal cell line; type: cell-based; conditions: Homo sapiens, value (SD)
Procedure: as §1, §2, §3

[8] = system: PC-3; assay: MTT assay, PC-3; type: cell-based, human; conditions: for IC50: MTT assay, PC-3 human prostate carcinoma, value (SD), read-out: B IC50 (SD); for B SI: Selectivity Index = IC50 HDF / IC50 of PC-3
Procedure: as §1, §2, §3

[9] = DPPH antioxidant assay; conditions: Figure 3
Description: as §4, §5, §6

[10] = system: SKOV-3; assay: MTT assay, SKOV-3; type: cell-based, human; conditions: for IC50: SK-OV-3, MTT assay, SKOV-3 human ovarian cystadenocarcinoma, value (SD); for SKOV-3 SI: Selectivity Index = IC50 HDF / IC50 SKOV-3
Procedure: as §1, §2, §3

[11] = Solubility in ethanol observed at crystallization; type: physicochemical; conditions: room temperature

In the case of `CC1(C)CCC2(C(=O)OCOC(=O)C34CCC(C)(C)CC3C3=CCC5C6(C)CCC(O)C(C)(C)C6CCC5(C)C3(C)CC4)CCC3(C)C(=CCC4C5(C)CCC(O)C(C)(C)C5CCC43C)C2C1` (stereo not shown) [Compound 2a], the “DPPH activity (in words), previous analysis” value [1] is listed as “high DPPH activity” and the “CUPRAC activity (in words), previous analysis” value [2] is listed as “lower CUPRAC activity”.
For `CC1(C)CCC2(C(=O)OCCCCCOC(=O)C34CCC(C)(C)CC3C3=CCC5C6(C)CCC(O)C(C)(C)C6CCC5(C)C3(C)CC4)CCC3(C)C(=CCC4C5(C)CCC(O)C(C)(C)C5CCC43C)C2C1` (stereo not shown) [Compound 2g], the “CUPRAC activity (in words), previous analysis” value [2] is given as “high CUPRAC values”.
For `CC1(C)CCC2(C(=O)OCCCCCCCOC(=O)C34CCC(C)(C)CC3C3=CCC5C6(C)CCC(O)C(C)(C)C6CCC5(C)C3(C)CC4)CCC3(C)C(=CCC4C5(C)CCC(O)C(C)(C)C5CCC43C)C2C1` (stereo not shown) [Compound 2i], the “CUPRAC activity (in words), previous analysis” value [2] is given as “high CUPRAC values”.
For `CC1(C)CCC2(C(=O)OCCCCCCCCOC(=O)C34CCC(C)(C)CC3C3=CCC5C6(C)CCC(O)C(C)(C)C6CCC5(C)C3(C)CC4)CCC3(C)C(=CCC4C5(C)CCC(O)C(C)(C)C5CCC43C)C2C1` (stereo not shown) [Compound 2j], the “CUPRAC activity (in words), previous analysis” value [2] is given as “high CUPRAC values”.
For `CC1(C)CCC2(C(=O)OCCCCCCCCCCCOC(=O)C34CCC(C)(C)CC3C3=CCC5C6(C)CCC(O)C(C)(C)C6CCC5(C)C3(C)CC4)CCC3(C)C(=CCC4C5(C)CCC(O)C(C)(C)C5CCC43C)C2C1` (stereo not shown) [Compound 2m], the “CUPRAC activity (in words), previous analysis” value [2] is given as “high CUPRAC values”.
Work on `CC(=O)OC1CCC2(C)C(CCC3(C)C2CC=C2C4CC(C)(C)CCC4(C(=O)OCOC(=O)C45CCC(C)(C)CC4C4=CCC6C7(C)CCC(OC(C)=O)C(C)(C)C7CCC6(C)C4(C)CC5)CCC23C)C1(C)C` (stereo not shown) [Compound 3a] yielded an IC50 ([3]; Homo sapiens) of ~2 µM, a melting point of 286 to 288 °C and an IC50 [4] of 2.04 µM. The IC50 [5] was 2.03 µM, the “CUPRAC activity (in words)” value [6] was “moderate CUPRAC activity” and the IC50 [7] was 6.63 µM. The IC50 [8] was 2.26 µM and the “DPPH activity (in words)” value [9] was “higher antioxidant activity than OA; also recorded: high DPPH activity”.
For `CC(=O)OC1CCC2(C)C(CCC3(C)C2CC=C2C4CC(C)(C)CCC4(C(=O)OCCOC(=O)C45CCC(C)(C)CC4C4=CCC6C7(C)CCC(OC(C)=O)C(C)(C)C7CCC6(C)C4(C)CC5)CCC23C)C1(C)C` (stereo not shown) [Compound 3b], the IC50 ([3]; Homo sapiens) was 2.5 to 4.5 µM, the IC50 [4] was 2.97 µM and the “SKBR-3 SI” value [4] was 2.37. The “U-87 SI” value [5] was 2.27, the IC50 [5] was 3.1 µM and the “CUPRAC activity (in words)” value [6] was “highest CUPRAC activity; also recorded: high CUPRAC activity”. For the same compound, the IC50 [7] was 7.05 µM, the IC50 [10] was 3.04 µM and the “SKOV-3 SI” value [10] was 2.32. For the same compound, the IC50 [8] was 3.12 µM, the “B SI” value [8] was 2.26 and the “DPPH activity (in words)” value [9] was “low DPPH activity”.
In the case of `CC(=O)OC1CCC2(C)C(CCC3(C)C2CC=C2C4CC(C)(C)CCC4(C(=O)OCCCCCCCCCCCOC(=O)C45CCC(C)(C)CC4C4=CCC6C7(C)CCC(OC(C)=O)C(C)(C)C7CCC6(C)C4(C)CC5)CCC23C)C1(C)C` (stereo not shown) [Compound 3m], the IC50 ([3]; Homo sapiens) is reported as ~2 µM, the IC50 [3] is reported as ≤ 2 µM and the IC50 [4] is reported as 1.78 µM. The “SKBR-3 SI” value [4] was 2.59, the “U-87 SI” value [5] was 2.52 and the IC50 [5] was 1.83 µM. The solubility in ethanol [11] was “well soluble”, the “CUPRAC activity (in words)” value [6] was “highest CUPRAC activity” and the IC50 [7] was 4.62 µM. The IC50 [10] was 2.31 µM, the “SKOV-3 SI” value [10] was 2.00 and the IC50 [8] was 1.76 µM. For the same compound, the “B SI” value [8] was 2.62.
For `CC(=O)OC1CCC2(C)C(CCC3(C)C2CC=C2C4CC(C)(C)CCC4(C(=O)OCCCCCCCCCCCCOC(=O)C45CCC(C)(C)CC4C4=CCC6C7(C)CCC(OC(C)=O)C(C)(C)C7CCC6(C)C4(C)CC5)CCC23C)C1(C)C` (stereo not shown) [Compound 3n], the IC50 [4] was 9.69 µM, the “SKBR-3 SI” value [4] was 1.52 and the “U-87 SI” value [5] was 1.45. For the same compound, the IC50 [5] was 10.2 µM, the solubility in ethanol [11] was “well soluble” and the IC50 [7] was 14.7 µM. For the same compound, the IC50 [10] was 10.2 µM, the “SKOV-3 SI” value [10] was 1.43 and the IC50 [8] was 9.49 µM. For the same compound, the “B SI” value [8] was 1.55.
